In US7456152B2, “Peptide inhibitors of thrombin as potent anticoagulants” (priority 2004, dated 2008):
Values joined by “and” are separate entries in the source; they are usually repeats but may differ in a detail not shown here. Identical values can stand only once. Like-named read-outs stand apart in the source and are kept apart here. Ends that are not written are not given here.

How the values were obtained:
[1] = target: T1, human α-thrombin (Homo sapiens, UniProt P00734); experiment: Inhibition of the amidolytic activity of thrombin (Tos-Gly-Pro-Arg-p-nitroanilide hydrolysis); assay type: biochemical; details: for Ki: Tos-Gly-Pro-Arg-pNA, 25° C.
T1 construct: Bovine and human α-thrombins were supplied by Haematologic Technologies Inc (VT, USA); cleaved off efficiently by thrombin to generate the free N-terminus of the A-chain of human thrombin; purchased Haematologic Technologies Inc (VT, USA)
Method: Kinetics of thrombin-catalyzed hydrolysis of the chromogenic substrate Tos-Gly-Pro-Arg-p-nitroanilide were followed by absorbance at 405 nm on a Spectramax plate reader thermostated at either 25° C. or 37° C. according to the method of Maragnore et al (supra). The concentrations of Tos-Gly-Pro-Arg-p-nitroanilide ranged from 2 to 400 μM. Initial rates were calculated under conditions of <15% hydrolysis of the total substrate. The KM and Vmax values were calculated accordingly and kcat values were determined by dividing Vmax by the enzyme (thrombin) concentration. The inhibition assays were performed in the clotting buffer with a certain fixed concentration of α-thrombin (˜0.3 nM) such that linear progress curves were achieved within at least 15 min in the absence of the inhibition. The total volume of the solution was fixed at 200 μl. Reactions were initiated by addition of the chromogenic substrate to the wells containing thrombin and a certain concentration of the peptide inhibitors premixed for less than 2 min. Alternatively, the substrate was first mixed with the peptide inhibitor and the total volume was adjusted to 120 μL using the clotting buffer. Eighty microliters of human α-thrombin in the clotting buffer (˜0.3 nM final concentration) was added to initiate the reaction. The concentration of the peptides ranged from 0.5 nM to 10 μM. Kinetics data from initial rate experiments were used to construct Lineweaver-Burke plot; i.e. the relationship of (substrate concentration)^−1 versus (initial velocity)^−1 which. were analysed by linear regression with MicroCal Origin 4.1 program (MicroCal, MD) or using the GraphPad Prism software. The Ki values of the inhibitors were determined using the equation: Ki=[I]/{(SL0/SL1)−1}, where
[I] is the inhibitor concentration,
SL0 is the slope of the reaction in the absence of inhibitors, and
SL1 is the slope of the reaction in the presence of the inhibitor.
Alternatively, Dixon plots of inverse velocity versus the inhibitor concentrations were generated with the Sigmaplot™ software. Every Dixon plot contained an array of data corresponding to different substrate concentrations and the Ki values were determined from the intersections. Following Peptide Cleavage by HPLC

[2] = target: T1, human α-thrombin; experiment: Stability of peptides pre-incubated with thrombin, read by the clotting assay; assay type: biochemical; details: 30 hrs of incubation, 25° C.
Method: (§1) The FN22 peptide was incubated with thrombin at 25° C. in order to investigate the stability of the peptide in complex with thrombin. The progress of peptide cleavage by thrombin was monitored and analyzed through the HPLC profiles of the FN22 peptide in the absence or presence of thrombin for different incubation times. […] In the clotting assay, the FN22 peptide at a concentration of 400 nM was premixed with thrombin for different times of incubation before initiating the clotting reaction. The cleavage of the peptide by thrombin is indicated by a reduced clotting time with increasing incubation times. […]
In FIG. 18C, curve (1) represents the clotting assay curve recorded for a freshly-prepared stock solution of thrombin in the absence of peptide inhibitors, curves (2) and (3) represent the clotting curves recorded under the same condition as in (1) except that thrombin stood at 4° C. and 25° C., respectively, for 30 hrs, curves (4) and (5) represent the clotting curves recorded under the same condition as that in (3) except that the FN22 peptide (400 nM, curve 4) and FD22 (100 nM, curve 5) were mixed with thrombin during incubation, and curves (6) and (7) represent the clotting curves recorded under the same condition as that in (3) except that FN22 (400 nM, curve 6) and FD22 (100 nM, curve 7) were freshly-prepared intact peptides. […]

[3] = target: T1, human α-thrombin; experiment: Peptide cleavage by thrombin followed by HPLC; assay type: biochemical
Method: Previously reported methods (DiMaio, J., Gibbs, B., Munn; D., Lefebvre, J., Ni, F., and Konishi, Y. (1990) J. Biol. Chem. 265, 21698-21703; and Witting, J. I., Bourdon, P., Brezniak, D. V., Maraganore, J. M., and Fenton, J. W. (1992) Biochem. J. 283 (Pt 3), 737-743) were employed with some modifications (as detailed in the Results section and FIG. 18) to determine whether some bivalent peptides are cleaved by thrombin. Each peptide was dissolved in the clotting buffer at a final concentration of 2.0 μM and incubated at 25° C. with or without 2 μM of human α-thrombin for up to 40 hrs. The samples were then boiled for 2 min to stop the reaction, and centrifuged. The supernatant was acidified by addition of concentrated acetic acid before being loaded on an analytical HPLC C18 column and eluted with a linear gradient of 0%-50% (v/v) acetonitrile.
as §1, with “reaction.” for “reaction. The cleavage of the peptide by thrombin is indicated by a reduced clotting time with increasing incubation times.”

[4] = target: T1, human α-thrombin; experiment: Clotting assay: fibrinogen clotting by human thrombin, concentration doubling the clotting time (DCT) = IC50; assay type: biochemical
Method: The clotting assays were carried out by use of the protocols described previously (DiMaio, J., Gibbs, B., Munn, D., Lefebvre, J., Ni, F., and Konishi, Y. (1990) J. Biol. Chem. 265, 21698-21703; and Witting, J. I., Bourdon, P., Brezniak, D. V., Maraganore, J. M., and Fenton, J. W. (1992) Biochem. J. 283 (Pt 3), 737-743) The assay employs bovine plasma fibrinogen dissolved at 0.1% in 50 mM Tris-Cl, 100 mM NaCl, 0.1% PEG-8000 at pH 7.6 (i.e. the clotting buffer). Each assay mixture contained a certain concentration of the peptide, and the reaction was started by the addition of human thrombin to a final concentration of 0.1 NIH unit/ml. Optical absorbance of the assay mixtures was measured at 420 nm and 37° C. using the Spectramax™ plate reader. The onset clotting time was determined as an intersection of the baseline and the initial slope of the O.D. change as a result of fibrin clot formation. The concentration of a peptide needed to double the clotting time (DCT) was defined as IC50. Peptide concentrations were determined by comparing the O.D.280 values of peptide stock solutions in the clotting buffer (vide supra) with the predicted extinction coefficient for each peptide (Gill, S. C. and von Hippel, P. H. (1989) Anal. Biochem. 182, 319-326).
The peptide concentration for doubling the clotting time (DCT) was defined as the IC50 value.

[5] = target: T1, human α-thrombin; experiment: Digestion of 15N-labelled FD22 at the Arg(P1)-Pro(P1′) bond by human α-thrombin; assay type: biochemical; details: ~1 mM 15N-labelled peptide, 5 μM human α-thrombin
Method: After the peptide was incubated with thrombin at 25° C. for 40 hrs, around 90% of the intact FD22 peptide still remained as shown by use of HPLC analysis (FIG. 18B). In the clotting assay, the FD22 peptide at 100 nM was premixed with thrombin for different times before initiation of clotting. The peptide thus prepared had the clotting time reduced by only 12% after 30 hrs of incubation with thrombin. Indeed, the ^15N-labelled FD22 with a concentration of ˜1 mM (FIG. 16D) was digested completely at the Arg(P1)-Pro(P1′) bond by a 5 μM concentration of human α-thrombin only after more than 60 hrs of incubation.

[6] = target: T1, human α-thrombin; details: data from the published reports of DiMaio and Maraganore; read-out: Amidolytic assay (Ki); cited from earlier work
[7] = target: T1, human α-thrombin; details: data from the published reports of DiMaio and Maraganore; read-out: Clotting assay, 37° C. (IC50); cited from earlier work
[8] = Amidolytic assay, 25° C. (Ki, nM)

For `CC[C@H](C)[C@H](NC(=O)[C@H](CCC(=O)O)NC(=O)[C@H](CCC(=O)O)NC(=O)[C@H](Cc1ccccc1)NC(=O)[C@H](CC(=O)O)NC(=O)CNC(=O)[C@H](CC(=O)O)NC(=O)[C@H](CC(N)=O)NC(=O)[C@H](Cc1c[nH]cn1)NC(=O)[C@H](CO)NC(=O)[C@H](CCC(N)=O)NC(=O)[C@@H]1CCCN1C(=O)[C@H](CCCNC(=N)N)NC(=O)[C@@H]1CCCN1C(=O)[C@H](CC(N)=O)NC(=O)[C@@H](N)Cc1ccccc1)C(=O)N1CCC[C@H]1C(=O)N[C@@H](CCC(=O)O)C(=O)N[C@@H](CCC(=O)O)C(=O)N[C@@H](Cc1ccc(O)cc1)C(=O)N[C@@H](CC(C)C)C(=O)N[C@@H](CCC(N)=O)C(=O)O` [FN22], the Ki [1, 8] was 80 ± 10 nM, the “kcat in the presence of the peptide” value ([1]; FN22 at 80 μM, 130 without peptide) was 115 s⁻¹ and the mode of inhibition ([1]; substrate concentrations near the KM) was “competitive”. The “reduction of clotting time compared to the control” value ([2]; peptide 400 nM premixed with thrombin) was 41% and the “peptide cleaved by thrombin” value ([3]; 2.0 μM peptide, 2.0 μM human α-thrombin, 25° C., after 40 hours) was “about 30%”.

In the case of `CC[C@H](C)[C@H](NC(=O)[C@H](CCC(=O)O)NC(=O)[C@H](CCC(=O)O)NC(=O)[C@H](Cc1ccccc1)NC(=O)[C@H](CC(=O)O)NC(=O)CNC(=O)[C@H](CC(=O)O)NC(=O)[C@H](CC(N)=O)NC(=O)[C@H](Cc1c[nH]cn1)NC(=O)[C@H](CO)NC(=O)[C@H](CCC(N)=O)NC(=O)[C@@H]1CCCN1C(=O)[C@H](CCCNC(=N)N)NC(=O)[C@@H]1CCCN1C(=O)[C@H](CC(=O)O)NC(=O)[C@@H](N)Cc1ccccc1)C(=O)N1CCC[C@H]1C(=O)N[C@@H](CCC(=O)O)C(=O)N[C@@H](CCC(=O)O)C(=O)N[C@@H](Cc1ccc(O)cc1)C(=O)N[C@@H](CC(C)C)C(=O)N[C@@H](CCC(N)=O)C(=O)O` [FD22], the IC50 [4] is reported as ~50 nM and 45 nM and ~45 nM, the “incubation time until complete digestion at the Arg(P1)-Pro(P1′) bond” value [5] is reported as “more than 60 hrs” and the Ki [1, 8] is reported as roughly 55 nM. The “reduction of clotting time” value ([2]; peptide 100 nM premixed with thrombin) was 12% and the intact peptide remaining ([3]; incubated with thrombin at 25° C. for 40 hrs) was “around 90%”.

In the case of `CC[C@H](C)[C@H](NC(=O)[C@H](CCC(=O)O)NC(=O)[C@H](CCC(=O)O)NC(=O)[C@H](Cc1ccccc1)NC(=O)[C@H](CC(=O)O)NC(=O)CNC(=O)[C@H](CC(=O)O)NC(=O)[C@H](CC(N)=O)NC(=O)[C@H](Cc1c[nH]cn1)NC(=O)[C@H](CCCNC(=N)N)NC(=O)[C@H](CCC(N)=O)NC(=O)[C@@H]1CCCN1C(=O)[C@H](CCCNC(=N)N)NC(=O)[C@@H]1CCCN1C(=O)[C@H](CC(=O)O)NC(=O)[C@@H](N)Cc1ccccc1)C(=O)N1CCC[C@H]1C(=O)N[C@@H](CCC(=O)O)C(=O)N[C@@H](CCC(=O)O)C(=O)N[C@@H](Cc1ccc(O)cc1)C(=O)N[C@@H](CC(C)C)C(=O)N[C@@H](CCC(N)=O)C(=O)O` [FD22-R], the IC50 [4] is reported as ~32 nM and 32 nM and the Ki [1, 8] is reported as 45 ± 6 nM.

FDPRPGGGGCNGDFEEIPEEYL [FD21-4GN] gave an IC50 ([4]; peptide concentration doubling the clotting time (DCT), 37° C., '>' values: no delay in clotting time up to the concentration shown, read-out: Clotting assay, 37° C. (IC50)) of 208 ± 8 nM and a Ki ([1]; read-out: Amidolytic assay, 25° C. (Ki)) of 300 ± 20 nM.

In the case of WDPRPQLHNDGDFEPIPEEYLQ [WD22-L-P], the IC50 [4] is reported as ~26 nM and 26 nM and the Ki [1, 8] is reported as 39 ± 4 nM.

In the case of dFPRPQSHNDGDFEEIPEEYL [P53^(e)], the Ki [6] is given as 2.8 ± 0.9 nM and the IC50 [7] is given as 4.1 ± 0.8 nM.

Work on `CC[C@H](C)[C@H](NC(=O)[C@H](CCC(=O)O)NC(=O)[C@H](CCC(=O)O)NC(=O)[C@H](Cc1ccccc1)NC(=O)[C@H](CC(=O)O)NC(=O)CNC(=O)[C@H](CC(=O)O)NC(=O)[C@H](CC(N)=O)NC(=O)[C@H](Cc1c[nH]cn1)NC(=O)[C@H](CO)NC(=O)[C@H](CCC(N)=O)NC(=O)[C@@H]1CCCN1C(=O)[C@H](CCCNC(=N)N)NC(=O)[C@@H]1CCCN1C(=O)[C@H](CC(N)=O)NC(=O)[C@@H](N)Cc1ccccc1)C(=O)N1CCC[C@H]1C(=O)N[C@@H](CCC(=O)O)C(=O)N[C@@H](CCC(=O)O)C(=O)N[C@@H](Cc1ccc(O)cc1)C(=O)N[C@@H](CC(C)C)C(=O)N[C@@H](CCC(N)=O)C(=O)O` [FN22^(a)] yielded an IC50 [4] of 150 ± 15 nM and a Ki [1, 8] of 100 ± 10 nM.
